A short description of data set [1]: Plasma stability test, human plasma. The following applies: 1 μM, 37° C.
Description: (§2) The peptoid derivative of the present disclosure was added at a concentration of 1 μM to two types of plasma (human, rat), placed in each tube, and then cultured at 37° C. for time of 0, 30, 60, 120, and 240 minutes. The tube containing plasma was taken out every time, added with an acetonitrile solution containing an internal standard material (chlorpropamide), vortexed for 5 minutes, and centrifuged for 5 minutes (14,000 rpm, 4° C.). Thereafter, the plasma stability of the peptoid derivative was evaluated by injecting the supernatant into an LC-MS/MS system and analyzing the drug at each time period. At this time, Procaine and Enalapril were used as reference materials for accuracy during a general plasma stability test.
(§3) After the reaction, the amount of drug remaining in each tube was analyzed by LC-MS/MS using Shimadzu Nexera XR system and TSQ vantage (Thermo). The HPLC column was used with a Luna C18 column (2.0×50 mm, 3 μm particle size; Phenomenex, US), and the mobile phase was distilled water (A) containing 0.1% formic acid and acetonitrile (B) containing 0.1% formic acid. Data analysis was performed using Xcalibur (version 1.6.1). In the result analysis, the plasma stability of each peptoid derivative was expressed as % remaining for each time period for the sample without culture.
Data set [2] can be described thus: Plasma stability test, rat plasma. As to conditions: 1 μM, 37° C.
Description: as §2, §3
Data set [3] in a line: in vitro. As to conditions: human, plasma.
Description: as §2, §3
Data set [4] relates to AMPK phosphorylation. In words: AMPK phosphorylation activity in mouse adipocytes (Western blot). It is filed as cell-based. As to conditions: 3T3-L1, 10 μM, 24 hours; for AMPK phosphorylation activity (fold change): Western blot, APN5 = 1.0. The method, then:
There were confirmed effects of the peptoid derivative of the present disclosure on the expression and receptor activity of adiponectin in mouse adipocytes as a main adiponectin production site. A mouse adipocyte cell line 3T3-L1 was treated with each of the peptoid derivatives of the present disclosure at a concentration of 10 μM and cultured for 24 hours, and then cells were obtained. Thereafter, the protein was extracted and the effect of adiponectin on AMPK phosphorylation, which was responsible for the main downstream signaling, was confirmed by Western blot.
A general note: Immunoblotting shows a protein as a band on a membrane.

Data set [5] in a line: in vitro. As to conditions: rat, plasma.
Description: as §2, §3
Data set [6] is described as follows: in vitro. The following applies: rat, microsomes, pH 7.4.
Description: (§4) Three types of liver microsomes (Human, Rat, Mouse, 0.5 mg/ml), a 0.1 M phosphate buffer solution (pH 7.4), and the peptoid derivative of the present disclosure were added at a concentration of 1 μM and pre-cultured at 37° C. for 5 minutes, and then added with an NADPH Regeneration system solution and cultured at 37° C. for 30 minutes. Thereafter, to terminate the reaction, the mixture was added with an acetonitrile solution containing an internal standard material (chlorpropamide), centrifuged for 5 minutes (14,000 rpm, 4° C.), and then the supernatant was injected into the LC-MS/MS system to analyze a substrate drug, and thus metabolic stability was evaluated.
(§5) The amount of substrate remaining through the reaction was analyzed by LC-MS/MS using Agilent 1290 infinity series pump system (Agilent, USA) and Triple Quad 5500 LC-MS/MS system (Applied Biosystems, USA). The HPLC column was used with a Kinetex C18 column (2.1×100 mm, 1.7 μm particle size; Phenomenex, USA), and the mobile phase was distilled water (A) containing 0.1% formic acid and acetonitrile (B) containing 0.1% formic acid. TurboSpray Ionization was used as an ion source for MS/MS, and a triple quadruple type was used as a mass spectrometer. The produced metabolites were quantified using a multiple reaction monitoring (MRM) quantitative mode, and data analysis was performed using Analyst software (version 1.6.1).
Data set [7] can be described thus: in vitro. The following applies: mouse, microsomes, pH 7.4.
Description: as §4, §5
A short description of data set [8]: physchem. The following applies: pH 7.4.
Description: A PRISMA HT solution was diluted in distilled water at a ratio of 1:40, and then used as a test buffer by adjusting the pH to 7.4.
10 mL of the prepared test material was diluted in 190 μL of isopropyl alcohol and prepared. In addition, 75 mL of the test solution and 70 mL of isopropyl alcohol were mixed to be used as a blank sample, and 5 mL of the test material diluted in isopropyl alcohol was added to the blank sample. After the diluted sample was mixed, the absorbance was measured and used as an initial test value. […] Thereafter, the precipitate was removed from the sample using a filter plate, 74 mL of the filtered sample was added with 75 mL of isopropyl alcohol, and then the absorbance was measured and used as the sample value.
The solubility value of the test material was analyzed using a msol Explore (Solubility explorer program) after measuring the absorbance of each sample through a microplate reader. The average and standard deviation of the experimental values (n=3) repeated three times were calculated using the Excel program.
Data set [9] has as its system AMPK phosphorylation. In words: Concentration dependence of AMPK phosphorylation activity. Type of data set: cell-based, mouse. As to conditions: 3T3-L1, 0, 0.01, 0.1, 1, 10, and 100 μM, 24 hours. The source says:
Thereafter, the protein was extracted and the effect of the peptoid derivative on AMPK phosphorylation in a concentration-dependent manner was confirmed by Western blot.

Data set [10] deals with T1, adiponectin receptor 1 (Mus musculus, UniProt Q91VH1).
T1 construct: a mouse adipocyte cell line 3T3-L1 was treated with siRNA of an adiponectin receptor 1 to be knocked down; endogenous in cells; host or cells: 3T3-L1 mouse adipocyte cell line
T1 sequence (Q91VH1 1-375): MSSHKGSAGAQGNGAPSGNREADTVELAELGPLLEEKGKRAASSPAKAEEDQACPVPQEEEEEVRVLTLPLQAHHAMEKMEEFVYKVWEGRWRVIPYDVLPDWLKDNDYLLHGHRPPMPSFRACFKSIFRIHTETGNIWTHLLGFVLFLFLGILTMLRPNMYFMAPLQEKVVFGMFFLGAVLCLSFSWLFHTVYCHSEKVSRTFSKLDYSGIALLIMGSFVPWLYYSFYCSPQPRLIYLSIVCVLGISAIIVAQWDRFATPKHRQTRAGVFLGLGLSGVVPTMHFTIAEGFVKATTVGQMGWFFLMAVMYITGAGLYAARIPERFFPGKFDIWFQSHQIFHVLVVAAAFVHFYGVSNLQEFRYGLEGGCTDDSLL
In words: Loss of AMPK phosphorylation activity after knockdown of adiponectin receptor 1. Type of data set: cell-based. The following applies: 3T3-L1, adiponectin receptor 1 siRNA, 10 μM, 24 hours. The protocol:
In order to verify whether the peptoid derivative of the present disclosure bound to an adiponectin receptor 1, a mouse adipocyte cell line 3T3-L1 was treated with siRNA of an adiponectin receptor 1 to be knocked down, and each of the peptoid derivatives of the present disclosure was treated at a concentration of 10 μM and cultured for 24 hours, and then cells were obtained. Thereafter, the proteins were extracted and it was confirmed by Western blot whether AMPK phosphorylation activity, which had been increased by the peptoid derivatives, was lost.

Data set [11] in a line: in vitro. As to conditions: human, microsomes, pH 7.4.
Description: as §4
The HPLC column was used with a Kinetex C18 column (2.1×100 mm, 1.7 μm particle size; Phenomenex, USA), and the mobile phase was distilled water (A) containing 0.1% formic acid and acetonitrile (B) containing 0.1% formic acid. TurboSpray Ionization was used as an ion source for MS/MS, and a triple quadruple type was used as a mass spectrometer. The produced metabolites were quantified using a multiple reaction monitoring (MRM) quantitative mode, and data analysis was performed using Analyst software (version 1.6.1).
Data set [12] has as its target CYP2C19 (Homo sapiens, UniProt P33261). In words: CYP inhibition assay, CYP2C19. As to conditions: human, microsomes, 15 min, 10 μM, pH 7.4. The method, then:
(§1) Metabolites of each CYP isoenzyme indicator drug produced through the reaction were analyzed by LC-MS/MS using the Shimadzu Nexera XR system and TSQ vantage (Thermo).

Data set [13] addresses CYP2C9 (Homo sapiens, UniProt P11712). Briefly: CYP inhibition assay, CYP2C9. The following applies: human, microsomes, 15 min, 10 μM, pH 7.4. The method, then:
as §1

Data set [14] concerns the target T2, CYP1A2 (Homo sapiens, UniProt P05177).
T2 sequence (P05177 1-516): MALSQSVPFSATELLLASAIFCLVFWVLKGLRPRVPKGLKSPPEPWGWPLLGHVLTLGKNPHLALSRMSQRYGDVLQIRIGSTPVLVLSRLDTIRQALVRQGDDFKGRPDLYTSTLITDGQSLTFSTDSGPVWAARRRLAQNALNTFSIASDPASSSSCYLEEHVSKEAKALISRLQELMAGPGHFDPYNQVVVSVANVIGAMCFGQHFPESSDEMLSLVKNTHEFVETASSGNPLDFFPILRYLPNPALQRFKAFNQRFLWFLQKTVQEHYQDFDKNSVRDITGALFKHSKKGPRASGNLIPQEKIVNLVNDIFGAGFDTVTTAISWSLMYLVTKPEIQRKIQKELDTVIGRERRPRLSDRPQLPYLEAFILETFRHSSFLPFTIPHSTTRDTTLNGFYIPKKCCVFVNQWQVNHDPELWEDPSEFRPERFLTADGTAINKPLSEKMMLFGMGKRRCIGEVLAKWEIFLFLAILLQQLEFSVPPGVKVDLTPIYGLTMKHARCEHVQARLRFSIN
In words: CYP inhibition assay, CYP1A2. As to conditions: human liver microsomes 0.25 mg/ml, 10 μM, 15 minutes. The method, then:
as §1
(Microsomes from liver hold many membrane-bound enzymes, among them those of drug oxidation.)

Each structure is given as a SMILES string. Converted amounts (≈) assume the structure as drawn. *1 amine or outer side, *2 acyl side, *3 side chain or, on linkers, in order; H or OH if unused. Where a SMILES comes first, the peptide text is derived from it. [ ]: non-standard residue; d: D form. Gly(N-4-hydroxybenzyl) = O=C(O)CNCc1ccc(O)cc1; X1 = O=C(CN(Cc1ccc(C(F)(F)F)cc1)[*:1])[*:2]; Gly(N-cPent) = O=C(O)CNC1CCCC1; Gly(NCH2cPr) = O=C(O)CNCC1CC1; N(cBu)Gly = O=C(O)CNC1CCC1; Nphe = O=C(O)CNCc1ccccc1

CYP2C19, sequence (P33261 whole entry): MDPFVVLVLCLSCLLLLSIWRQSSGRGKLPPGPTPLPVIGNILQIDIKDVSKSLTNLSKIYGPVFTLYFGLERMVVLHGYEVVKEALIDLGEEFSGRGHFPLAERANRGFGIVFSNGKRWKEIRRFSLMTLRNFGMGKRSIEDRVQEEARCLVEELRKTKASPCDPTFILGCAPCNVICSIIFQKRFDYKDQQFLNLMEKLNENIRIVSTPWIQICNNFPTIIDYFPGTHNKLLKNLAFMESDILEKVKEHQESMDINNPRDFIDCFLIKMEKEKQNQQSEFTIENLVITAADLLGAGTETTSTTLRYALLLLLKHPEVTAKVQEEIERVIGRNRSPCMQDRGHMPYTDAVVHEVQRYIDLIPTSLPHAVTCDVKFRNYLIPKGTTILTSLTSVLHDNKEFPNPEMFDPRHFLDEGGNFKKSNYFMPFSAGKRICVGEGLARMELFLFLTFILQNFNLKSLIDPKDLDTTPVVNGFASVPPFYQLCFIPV
CYP2C9, sequence (P11712 whole entry): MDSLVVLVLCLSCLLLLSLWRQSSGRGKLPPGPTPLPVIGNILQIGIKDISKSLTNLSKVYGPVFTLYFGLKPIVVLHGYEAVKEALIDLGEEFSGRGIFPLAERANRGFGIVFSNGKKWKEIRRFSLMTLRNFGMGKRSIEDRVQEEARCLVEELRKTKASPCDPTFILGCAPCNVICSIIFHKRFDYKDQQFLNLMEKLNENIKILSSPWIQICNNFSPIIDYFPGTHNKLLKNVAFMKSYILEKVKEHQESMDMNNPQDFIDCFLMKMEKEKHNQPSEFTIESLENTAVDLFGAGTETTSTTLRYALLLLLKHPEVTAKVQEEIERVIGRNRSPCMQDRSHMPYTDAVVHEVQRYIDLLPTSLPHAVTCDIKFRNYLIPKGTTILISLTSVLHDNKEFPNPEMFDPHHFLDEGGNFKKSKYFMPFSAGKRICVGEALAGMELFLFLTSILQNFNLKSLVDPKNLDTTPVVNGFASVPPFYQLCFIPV

As for `CCN(CC)CCOC(=O)c1ccc(N)cc1` [Procaine], in [1] (5 min as printed in the cell), the “Plasma stability (% remaining) Human, 30 m column, cell marked (5 min)” value is on record as 2.8 (5 min) % remaining and the “Plasma stability (% remaining) Human, 120 m column, cell marked (5 min)” value is recorded as <1 (5 min) % remaining. In data set [2], the “Plasma stability (% remaining) Rat, 30 m” value came out at 90.3 % remaining and the “Plasma stability (% remaining) Rat, 120 m” value was determined as 57.4 % remaining.

Turning to `NCC(=O)N(CC(=O)N(CC(=O)N(CC(=O)N(CC(N)=O)Cc1ccccc1)Cc1ccc(O)cc1)Cc1ccccc1)C1CCCC1` [DS-25, Ngly-Ncpe-Nbn-Ntyr-Nbn-NH2] (H-G[Gly(N-cPent)][Nphe][Gly(N-4-hydroxybenzyl)][Nphe]-NH2), the share remaining (in general, the share of the starting amount still present when the sample was taken) at 0.5 h, 1 μM is 98.6% in data set [3]; more than 100% in data set [5]; 80.9% in data set [6]; 76% in data set [7]; 93.6% in data set [11]. In addition, the results for the share remaining at 2 h, 1 μM in [3] and in [5] were 98.4% and 95.9%, respectively. Also, the “effect of increasing AMPK phosphorylation activity compared to APN5” value in data set [4] is “significant effect of increasing AMPK phosphorylation activity”. Besides, the “AMPK phosphorylation activity (fold change)” value in [4] came to 2.1 fold change. Moreover, the solubility – broadly, how much of the substance goes into solution per volume – at 24 h in data set [8] stood at 325 µg/mL (≈ 495 µM). Besides, the “concentration dependence of AMPK phosphorylation activity” value in data set [9] was “increased AMPK phosphorylation activity in a concentration-dependent manner”. Moreover, in [10], the “AMPK phosphorylation activity after knockdown of the adiponectin receptor 1” value is “reduced the AMPK phosphorylation activity”.

Take `CC(=O)N1CCN(c2ccc(OCC3COC(Cn4ccnc4)(c4ccc(Cl)cc4Cl)O3)cc2)CC1` (stereo not shown) [Ketoconazole]: the “CYP inhibition (% of control activity) CYP2C19” value in data set [12] was >100 % of control activity. In addition, in data set [13], the “CYP inhibition (% of control activity) CYP2C9” value is on record as >100 % of control activity. Further, the “CYP inhibition (% of control activity) CYP1A2” value in data set [14] is reported as 97.2 % of control activity.

For `NCC(=O)N(CCC(=O)O)CC(=O)N(CC(=O)N(CC(=O)N(CC(N)=O)Cc1ccccc1)Cc1ccc(C(F)(F)F)cc1)Cc1ccc(C(F)(F)F)cc1` [DS-71, Ngly-Nasp-Ntfp-Ntfp-Nbn-NH2], the fraction remaining at 0.5 h, 1 μM in data set [3] is more than 100%; in data set [5], more than 100%; in [6], more than 100%; in data set [7] it was 84.4%; in data set [11] it was more than 100%. The share remaining at 2 h, 1 μM in [3] and in data set [5] was more than 100% each time. The solubility at 24 h in [8] came out at 73.3 µg/mL (≈ 93.8 µM).

Regarding `NCC(=O)N(CC(=O)N(CC(=O)N(CC(=O)N(CC(N)=O)Cc1ccccc1)Cc1ccc(O)cc1)Cc1ccc(O)cc1)C1CCCC1` [DS-16, Ngly-Ncpe-Ntyr-Ntyr-Nbn-NH2] (H-G[Gly(N-cPent)][Gly(N-4-hydroxybenzyl)][Gly(N-4-hydroxybenzyl)][Nphe]-NH2), the amount remaining at 0.5 h, 1 μM in data set [3] is more than 100%; in data set [5] it was more than 100%; in data set [6] it was 79.8%; in data set [7], 75.5%; in data set [11], 87.1%. For the same compound, the results for the amount remaining at 2 h, 1 μM in [3] and in [5] were more than 100% and 99.5%, respectively. Besides, in [4], the “effect of increasing AMPK phosphorylation activity compared to APN5” value was “significant effect of increasing AMPK phosphorylation activity”. In data set [4], the “AMPK phosphorylation activity (fold change)” value stood at 1.4 fold change. Moreover, in data set [8], the solubility at 24 h stood at 333 µg/mL (≈ 495 µM). The “concentration dependence of AMPK phosphorylation activity” value in data set [9] is given as “increased AMPK phosphorylation activity in a concentration-dependent manner”. Also, the “AMPK phosphorylation activity after knockdown of the adiponectin receptor 1” value in [10] is listed as “reduced the AMPK phosphorylation activity”.

In the case of `NCC(=O)N(CC(=O)N(CC(=O)N(CC(=O)N(CC(N)=O)Cc1ccccc1)Cc1ccc(O)cc1)Cc1ccc(O)cc1)C1CCC1` [DS-15, Ngly-Ncba-Ntyr-Ntyr-Nbn-NH2] (H-G[N(cBu)Gly][Gly(N-4-hydroxybenzyl)][Gly(N-4-hydroxybenzyl)][Nphe]-NH2), in data set [4], the “effect of increasing AMPK phosphorylation activity compared to APN5” value is given as “significant effect of increasing AMPK phosphorylation activity” and the “AMPK phosphorylation activity (fold change)” value is recorded as 1.2 fold change. For the same compound, in [10], the “AMPK phosphorylation activity after knockdown of the adiponectin receptor 1” value is “reduced the AMPK phosphorylation activity”.

Turning to `NCC(=O)N(CC(=O)N(CC(=O)N(CC(=O)N(CC(N)=O)Cc1ccc(C(F)(F)F)cc1)Cc1ccccc1)Cc1ccccc1)C1CCCC1` [DS-47, Ngly-Ncpe-Nbn-Ntfb-Nbn-NH2] (H-G[Gly(N-cPent)][Nphe][Nphe][X1]-NH2), the fraction remaining at 0.5 h, 1 μM is more than 100% in [3]; more than 100% in data set [5]; 73% in data set [6]; 95.3% in [7]; 77.2% in data set [11]. The share remaining at 2 h, 1 μM in data set [3] and in data set [5] was more than 100% throughout. For the same compound, the “effect of increasing AMPK phosphorylation activity compared to APN5” value in data set [4] was “significant effect of increasing AMPK phosphorylation activity”. Also, the “AMPK phosphorylation activity (fold change)” value in data set [4] is on record as 1.6 fold change. Besides, the concentration in solution in data set [8] (solubility at 24 h) was 351 µg/mL (≈ 495 µM). Besides, in [10], the “AMPK phosphorylation activity after knockdown of the adiponectin receptor 1” value is “reduced the AMPK phosphorylation activity”.

For the compound `CCOC(=O)[C@H](CCc1ccccc1)N[C@@H](C)C(=O)N1CCC[C@H]1C(=O)O` [Enalapril], the “Plasma stability (% remaining) Human, 30 m” value in [1] (30 m) was more than 100 % remaining. Also, the “Plasma stability (% remaining) Human, 120 m” value in data set [1] (120 m) was determined as 97.4 % remaining. In data set [2], the “Plasma stability (% remaining) Rat, 30 m” value was found to be 27.9 % remaining and the “Plasma stability (% remaining) Rat, 120 m” value is listed as less than 1 % remaining.

On to `NCC(=O)N(CC(=O)N(CC(=O)N(CC(=O)N(CC(N)=O)Cc1ccccc1)Cc1ccc(O)cc1)Cc1ccc(O)cc1)CC1CC1` [DS-31, Ngly-Ncpr-Ntyr-Ntyr-Nbn-NH2] (H-G[Gly(NCH2cPr)][Gly(N-4-hydroxybenzyl)][Gly(N-4-hydroxybenzyl)][Nphe]-NH2), for which the amount remaining at 0.5 h, 1 μM in [3] is more than 100%; in [5], more than 100%; in [6], 83.7%; in data set [7], 72.2%; in [11], 93.7%. The fraction remaining at 2 h, 1 μM in data set [3] and in [5] was more than 100% each time.

The values above are taken from US20250051390A1, “NOVEL ADIPONECTIN-DERIVED PEPTOID DERIVATIVE AND USE THEREOF” (SEOUL NATIONAL UNIVERSITY HOSPITAL, priority 2021, published 2025).
